Where two headings read alike, the source gives them in different places.
Assays:
BJELR = assay: Sytox primary screen; assay type: cell-based; conditions: Homo sapiens
Description: The Sytox primary screen is a phenotypic assay which monitors alterations in cell survival-proliferation as a result of compound treatment. It was devised as high throughput method to identify compounds which specifically alter the growth potential of cells harboring the causative mutations found in cancer patients while not affecting the growth of normal cells.
The assay relies upon an inexpensive, simple and reliable readout of a membrane impermeable fluorescent dye (Sytox, from Molecular Probes) which binds to nucleic acid. In healthy cells, no signal is detected because the cell's membrane is intact and the dye will not enter. However, if a cell's membrane is compromised as a result of apoptosis or necrosis, a fluorescent signal proportional to the number of similarly affected cells will be detected. By utilizing a two-step readout (final read in the presence of detergent to permit labeling of all cells), the assay can identify compounds which produce cytostasis, cytotoxicity and/or mitogenesis. The first read or “dead cell” read provides an estimate of the toxicity of a given compound by indicating the number of dead or dying cells in the culture at the time of assay. The second read or “total cell” read captures both the cumulative effects of cytoxicity in reducing the size of the cell population as well as any cytostatic or anti-proliferative effects a test compound may exert on the cells in the test population in the absence of toxicity.
For the purpose of screening, the previously described BJ-TERT line was defined as the “normal” reference cell line and BJ-TERT/LT/ST/RAS^V12 cells were the tumorigenic cell line. Cells were seeded overnight in 96 well plates at densities which without treatment would permit 95% confluence in the wells 72 H later. The following day, the cells were exposed to test compounds in a dilution series for a period of 48 hours. Following this incubation period, the Sytox reagent was added to the cultures at the manufacturer's recommended concentration and the dead cell fluorescence read was taken. After completion of this measurement, the detergent Saponin was added to each well of the cultures to permeabilize the membranes allowing the Sytox reagent to enter every cell thereby, facilitating measurement of the total number of cells remaining in the culture.

MCF7 = assay: Sytox screen, tumor cell line panel; assay type: cell-based; conditions: Homo sapiens, Breast, activated pathway, read-out: IC 50, MCF7
BT-549 = assay: Sytox screen, tumor cell line panel; assay type: cell-based; conditions: Homo sapiens, Breast, activated pathway, read-out: IC 50, BT-549
DLD-1 = assay: Sytox screen, tumor cell line panel; assay type: cell-based; conditions: Homo sapiens, Colon, K-ras G13D mutation, wt B-raf, read-out: IC 50, DLD-1
HCT116 = assay: Sytox screen, tumor cell line panel; assay type: cell-based; conditions: Homo sapiens, HCT-116; Colon; K-ras G12D; read-out: IC 50, HCT116
HT1080 = assay: Sytox screen, tumor cell line panel; assay type: cell-based; conditions: Homo sapiens, HT-1080; fibrosarcoma; n-ras mutation; read-out: IC 50, HT1080
MALME-3M = assay: Sytox screen, tumor cell line panel; assay type: cell-based; conditions: Homo sapiens, Melanoma, B-raf V600E mut, ras wt, read-out: IC 50, MALME-3M
SK-MEL-28 = assay: Sytox screen, tumor cell line panel; assay type: cell-based; conditions: Homo sapiens, Melanoma, B-raf V600E mut, ras wt, read-out: IC 50, SK-MEL-28
SK-MEL-5 = assay: Sytox screen, tumor cell line panel; assay type: cell-based; conditions: Homo sapiens, Melanoma, B-raf V600E mut heterozygote, read-out: IC 50, SK-MEL-5
HOP-62 = assay: Sytox screen, tumor cell line panel; assay type: cell-based; conditions: Homo sapiens, Non-Small Cell Lung, K-ras G12V, read-out: IC 50, HOP-62
HOP-92 = assay: Sytox screen, tumor cell line panel; assay type: cell-based; conditions: Homo sapiens, Non-Small Cell Lung, Wt ras, read-out: IC 50, HOP-92
OVCAR-3 = assay: Sytox screen, tumor cell line panel; assay type: cell-based; conditions: Homo sapiens, Ovarian, K-ras amplification, read-out: IC 50, OVCAR-3
SK-OV-3 = assay: Sytox screen, tumor cell line panel; assay type: cell-based; conditions: Homo sapiens, Ovarian, read-out: IC 50, SK-OV-3
OVCAR-5 = assay: Sytox screen, tumor cell line panel; assay type: cell-based; conditions: Homo sapiens, Ovarian, K-ras G12V, read-out: IC 50, OVCAR-5
DU-145 = assay: Sytox screen, tumor cell line panel; assay type: cell-based; conditions: Homo sapiens, Prostate, Wt ras, read-out: IC 50, DU-145
PC-3 = assay: Sytox screen, tumor cell line panel; assay type: cell-based; conditions: Homo sapiens, Prostate, read-out: IC 50, PC-3
PANC-1 = assay: Sytox screen, tumor cell line panel; assay type: cell-based; conditions: Homo sapiens, Pancreatic, K-ras V12 mutant, read-out: IC 50, PANC-1
MIA-PaCa-2 = assay: Sytox screen, tumor cell line panel; assay type: cell-based; conditions: Homo sapiens, Pancreatic, K-ras mutant (G12C), read-out: IC 50, MIA-PaCa-2
HT-1080 xenografts = assay: HT-1080 tumor treatment study; assay type: in vivo, mouse; conditions: nude Balb/c mice; 100 or 50 mg/Kg, QD×5 days, IP
Description: Nude Balb/c (Nu/Nu strain, Charles River Laboratories), female, 5-6 week. old (˜20 g average body weight).
Both compounds were formulated in an identical manner. For the 100 mg/kg dose level, each compound was delivered at a concentration of 10.0 mg/ml, in an injection volume of 0.2 ml. For the 50 mg/kg dose level, each compound was delivered at a concentration of 5.0 mg/ml, in an injection volume of 0.2 ml. For both dose levels, the vehicle contained 0.025% Tween-80, 0.01% benzyl alcohol, 35 mM acetic acid (HOAc), 100 mM potassium phosphate buffer, and 32 mM sucrose, pH=6.5.
Beginning when the mean tumor volume reached ˜200 mm^3, and continuing through day 5, every day, each animal was administered a single IP injection of one of the above treatments, for a total of 5 doses.
Each of 70 mice was implanted with 1×10^7 HT-1080 cells by SC injection of 0.1 cc of inoculum into the right hind flank. A 25 G×⅝″ needle size was used. […]
Starting on Day 1, all animals were weighed, and tumor dimensions (length (L) and width (W)) were measured, every other day. […]
The resulting tumor volume values were averaged for each study group for each time point, and were then plotted against time. Variance was expressed as standard error of the mean (±SEM).

PANC-1 xenografts = assay: PANC-1 tumor treatment study; assay type: in vivo; conditions: immunodeficient nude mouse; once a day for five consecutive days
Description: The experimental plan for the PANC-1 study was essentially identical to that of the HT-1080 study outlined above in Example 10 with the following exceptions: approximately 30-40 mg fragment of passaged PANC-1 tumor tissue was implanted subcutaneously in the right flank of an immunodeficient nude mouse. Tumor growth was monitored daily and when the tumors reached approximately 100 mm^3, animals harboring similarly sized tumors were group matched and compound dosing was initiated. Administration of compound 5 occurred once a day for five consecutive days at the doses listed below. In the PANC-1 xenografts, gemcitabine, administered at the maximum tolerated dose for the model, was used as a control. The gemcitabine regimen was 180 mg/kg […] on every third day over a period of 9 days.

SMILES: CCOc1ccccc1-n1c(CN2CCNCC2)nc2ccccc2c1=O [Compound 5, 3-(2-ethoxyphenyl)-2-(piperazin-1-ylmethyl)quinazolin-4(3H)-one]
- IC50 (BJELR; Sytox screen, 48 hours, read-out: IC50 in BJELR): < 100 nM
- IC50 (BJELR; fibroblast, primary, ras V12 mutation, read-out: IC 50, BJELR): < 100 nM
- IC50 (MCF7): ≥ 1000 nM
- IC50 (BT-549): ≥ 100 nM
- IC50 (DLD-1): ≥ 100 nM
- IC50 (HCT116): ≥ 100 nM
- IC50 (HT1080): < 100 nM
- IC50 (MALME-3M): ≥ 100 nM
- IC50 (SK-MEL-28): ≥ 100 nM
- IC50 (SK-MEL-5): ≥ 100 nM
- IC50 (HOP-62): ≥ 100 nM
- IC50 (HOP-92): ≥ 1000 nM
- IC50 (OVCAR-3): ≥ 100 nM
- IC50 (SK-OV-3): ≥ 100 nM
- IC50 (OVCAR-5): < 100 nM
- IC50 (DU-145): ≥ 100 nM
- IC50 (PC-3): ≥ 1000 nM
- IC50 (PANC-1): < 100 nM
- IC50 (MIA-PaCa-2): ≥ 1000 nM
- antitumor activity in HT-1080 xenografts (HT-1080 xenografts): robust tumor regression
- antitumor activity in PANC-1 xenografts (PANC-1 xenografts): tumor regression
